Assay results: US20250288583A1, “Treatment of Mucus Hypersecretion” (priority 2024, published 2025)

Assays:
[1] = human volunteers; cited from earlier work
[2] = see Table 8, Wei U.S. Pat. No. 8,258,320; cited from earlier work
ostiomeatal complex = assay: Case study 6: WS-12 nebulization for dry mouth of obstructed breathing; type: in vivo, human
Text: As hypersecretion of mucus was not the principal event, it was decided that a long-acting p-menthanecarboxamide, WS-12, might work well for the dry mouth. WS-12 was first discovered by the applicant to be a potent TRPM8 receptor agonist (Reynolds and Polakis, U.S. Pat. No. 7,893,072), and they supplied this reagent for testing and publications [see Bödding et al. (Cell Calcium. 42:618-28, 2007), and Sherkheli (J. Pharm. Pharmaceu. Sci. 13:242-53, 2010)]. WS-12 has weak cooling effects on the skin. WS-12 was later approved as a food additive (FEMA) for comestibles such as chewing gum. WS-12 is available online for about $USD 15 per 100 g. WS-12 was prepared at 10 mg/ml in 1% ethanol and 2% polysorbate 80 suspensions for a 5-see nebulization using the NasoNeb® apparatus in a volunteer subject and administered once before sleep.
The subject now uses the WS-12 on an occasional as-needed basis. The nasal polyps are still present upon endoscopic examination. The WS-12 chemical structure is ideal for use in obstructed breathing because it has an aryl moiety that increases lipophilicity (higher octanol-water partition coefficient). Lipophilicity increases retention in the nasal mucosa; thus, its action is long-lasting. […] Its actions are more gentle, with a mild coolness on the nasal surfaces. […]

hTRPM8 channel = biological target: T1, hTRPM8 channel (Homo sapiens, UniProt Q7Z2W7); assay: TRPM8 receptor assay, calcium entry (Fluo-8, FLIPR) in transfected CHO cells; type: cell-based; conditions: FIG. 5
T1 construct: host or cells: CHO cells
T1 sequence (Q7Z2W7 whole entry): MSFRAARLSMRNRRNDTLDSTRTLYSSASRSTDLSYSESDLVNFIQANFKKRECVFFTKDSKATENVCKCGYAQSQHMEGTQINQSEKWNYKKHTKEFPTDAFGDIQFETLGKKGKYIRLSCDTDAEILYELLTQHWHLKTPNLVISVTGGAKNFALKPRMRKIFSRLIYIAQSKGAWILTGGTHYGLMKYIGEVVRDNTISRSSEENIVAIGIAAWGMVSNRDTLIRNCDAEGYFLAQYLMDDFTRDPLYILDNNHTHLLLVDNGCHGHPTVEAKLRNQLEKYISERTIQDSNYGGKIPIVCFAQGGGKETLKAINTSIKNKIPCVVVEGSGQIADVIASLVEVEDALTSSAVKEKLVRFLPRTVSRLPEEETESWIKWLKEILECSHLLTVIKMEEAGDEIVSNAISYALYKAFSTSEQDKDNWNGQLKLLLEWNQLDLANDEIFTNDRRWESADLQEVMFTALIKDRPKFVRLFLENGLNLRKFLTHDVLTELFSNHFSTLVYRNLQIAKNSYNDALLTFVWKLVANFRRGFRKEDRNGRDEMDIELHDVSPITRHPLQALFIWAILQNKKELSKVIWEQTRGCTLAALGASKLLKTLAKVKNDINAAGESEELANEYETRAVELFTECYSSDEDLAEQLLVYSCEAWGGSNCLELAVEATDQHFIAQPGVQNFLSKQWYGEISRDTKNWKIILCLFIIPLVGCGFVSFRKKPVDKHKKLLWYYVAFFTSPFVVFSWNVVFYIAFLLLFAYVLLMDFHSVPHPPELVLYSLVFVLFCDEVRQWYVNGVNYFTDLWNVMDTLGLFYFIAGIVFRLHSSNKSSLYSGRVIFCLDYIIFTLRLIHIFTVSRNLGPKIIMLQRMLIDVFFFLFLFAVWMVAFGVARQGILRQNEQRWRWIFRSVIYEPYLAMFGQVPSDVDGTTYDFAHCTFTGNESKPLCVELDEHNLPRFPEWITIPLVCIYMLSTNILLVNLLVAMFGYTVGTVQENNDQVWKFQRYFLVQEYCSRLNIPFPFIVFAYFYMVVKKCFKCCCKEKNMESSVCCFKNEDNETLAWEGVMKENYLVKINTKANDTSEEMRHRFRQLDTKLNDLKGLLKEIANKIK
Text: FIG. 4. Agonist activities of TRPM8 analogs. […] The relative fluorescence (RF) unit on the ordinate represents calcium entry into transfected cells. […] The structures of these compounds are in Table 4.
The applicant has synthesized and examined a series of p-menthanecarboxamides conjugated to amino acid esters. […] This class of molecules is called N-alkylcarbonyl-amino acid esters. GlyOiPr is a p-menthanecarboxamide conjugate of glycine isopropyl (iPr) ester. It is similar in structure to WS-5, a cooling agent used as a food additive. WS-5 is the p-menthane-glycine ethyl (Et) ester, or GlyOEt. […] These in vitro effects were measured in CHO cells transfected with the hTRPM8 channel. Receptor activity was quantified using a Fluo-8 calcium kit and a Fluorescence Imaging Plate Reader ([…]™).

[3] = test system: goblet cells of human nasal epithelium; conditions: Liu et al., 2017; cited from earlier work
nasal cavity = assay: Nebulizer screening of TRPM8 agonists for sensations in the nasal cavity; type: in vivo, human; conditions: NasoNeb nebulizer
Description: Formulations for nebulization with NasoNeb® used a standard recipe of (Table 8): 1% of the active ingredient (1 to 10 mg/mL), 2% Tween 80 (Polysorbate 80), 1 to 5% ethanol, and made up to 100% with water. The mixture is centrifuged in a FlackTek, Inc., Speedmixer for at least 10 min at 3000 rpm. The Speedmixer spins the sample in 3 dimensions. The result is a white homogeneous liquid suspension with some of the solids now dissolved. For dosing, ˜2 to 3 mL is loaded into the canister of the nebulizer. The nebulizer nozzle tip is placed in the nostril and activated by pressing a button for 3 to 5 sec using a clock timer. […] For D-Ala-OiPr a 5-sec activation will deliver 2*0.73 mL*2 mg/ml, or a total dose of 3 mg per nose. The nasal cavity is relatively tolerant to exogenous agents with irritant properties, as many rinses are used for rhinitis and sinusitis. For some p-menthanecarboxamide analogs, a 2% (20 mg/mL) solution is possible and contemplated. An ideal agent reproduces a comfortable cooling or sensations of negative heat flux in the nasal cavity. […] Heat flux refers to the rate of heat transfer per unit area. The sinonasal cavity mucosa differs from philtrum skin and ocular margins in histology, so the choice of the right molecule must be made by experiment. The TRPM8 agonists were chosen for screening using a nebulizer for delivery. The NasoNeb system is powerful and effective for the OMC (FIG. 3). The delivery time per nostril in three to five seconds. […] These parameters were estimated in the initial trials: • Onset and offset of cooling sensations in the nasal cavity. • The intensity and quality of the cooling sensations in the nasal cavity. • Presence of effects such as sneezing or cough after dosing. • Degree of nasal stuffiness on a scale of 0 to 5. • Degree of rhinorrhea and phlegm in nasal secretions. • Questions regarding comfort and sleep at night.

TRPA1 = biological target: T2, TRPA1 (Homo sapiens, UniProt O75762); conditions: Karashima et al., 2007; cited from earlier work
T2 construct: expressed in transfected cells
T2 sequence (O75762 whole entry, species assumed): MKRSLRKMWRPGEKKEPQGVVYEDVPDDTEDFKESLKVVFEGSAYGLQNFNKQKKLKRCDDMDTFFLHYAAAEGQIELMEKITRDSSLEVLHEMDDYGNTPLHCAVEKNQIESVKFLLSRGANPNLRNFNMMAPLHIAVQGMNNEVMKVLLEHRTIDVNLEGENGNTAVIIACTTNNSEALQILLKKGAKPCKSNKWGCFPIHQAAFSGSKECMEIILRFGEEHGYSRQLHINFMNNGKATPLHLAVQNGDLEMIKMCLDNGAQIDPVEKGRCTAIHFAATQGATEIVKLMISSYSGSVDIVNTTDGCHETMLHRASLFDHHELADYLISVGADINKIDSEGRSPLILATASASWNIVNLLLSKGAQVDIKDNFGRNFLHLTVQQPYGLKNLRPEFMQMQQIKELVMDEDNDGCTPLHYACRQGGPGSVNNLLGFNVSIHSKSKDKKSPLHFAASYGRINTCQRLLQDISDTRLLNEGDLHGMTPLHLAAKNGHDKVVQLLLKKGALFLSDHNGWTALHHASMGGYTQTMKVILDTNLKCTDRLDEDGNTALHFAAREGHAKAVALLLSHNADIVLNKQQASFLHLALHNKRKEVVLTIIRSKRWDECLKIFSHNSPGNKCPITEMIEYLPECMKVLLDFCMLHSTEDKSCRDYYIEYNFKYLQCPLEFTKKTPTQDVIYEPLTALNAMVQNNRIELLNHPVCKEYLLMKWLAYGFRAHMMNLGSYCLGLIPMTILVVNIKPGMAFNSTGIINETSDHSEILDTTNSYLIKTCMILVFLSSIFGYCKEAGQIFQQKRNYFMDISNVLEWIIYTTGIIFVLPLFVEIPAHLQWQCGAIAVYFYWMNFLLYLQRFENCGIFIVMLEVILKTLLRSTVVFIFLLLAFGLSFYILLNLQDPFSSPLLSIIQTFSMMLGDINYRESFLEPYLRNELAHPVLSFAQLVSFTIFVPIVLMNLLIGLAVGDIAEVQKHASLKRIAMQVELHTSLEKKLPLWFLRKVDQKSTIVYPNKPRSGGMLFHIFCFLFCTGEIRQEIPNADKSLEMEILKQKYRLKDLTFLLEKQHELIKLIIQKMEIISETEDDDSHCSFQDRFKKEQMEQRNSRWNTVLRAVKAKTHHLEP

## COc1ccc2c(c1)n(CCN)c(=O)n2C(=O)[C@@H]1C[C@H](C)CC[C@H]1C(C)C.Cl [D-2363]
[1]
  Troponin plasma levels: elevated troponin plasma levels

## COc1ccc(NC(=O)[C@@H]2C[C@H](C)CC[C@H]2C(C)C)cc1 [WS-12, (1R,2S,5R)-2-isopropyl-N-(4-methoxyphenyl)-5-methyl-cyclohexanecarboxamide]
[2]
  Octanol/water partition coefficient among the p-menthanecarboxamides: highest
Ostiomeatal complex; WS-12 10 mg/ml in 1% ethanol and 2% polysorbate 80, 5-sec nebulization once before sleep
  Effect on dry mouth symptoms: dry mouth symptoms disappeared after three days of use
Ostiomeatal complex; manual sprayer instead of electronically powered nebulizer
  Effect with manual spraying: does not work well

## CC(C)[C@@H]1CC[C@@H](C)C[C@H]1O [l-menthol, (1R,2S,5R)-2-isopropyl-5-methyl-cyclohexanol [(−)-menthol], reference compound]
hTRPM8 channel
  Activity on TRPM8 transfected cells: active
[3]
  MUC5AC secretion: stimulates MUC5AC
Nasal cavity
  Cooling duration in the nasal cavity: ~7 min
Nasal cavity; 3 to 5 sec per nostril
  Sensory effects after delivery into the nasal cavity: Strong cool, clear breathing. Eye irritant, causes rhinorrehea
TRPA1
  Potency on TRPA1 compared with TRPM8: interacts with TRPA1 at a greater potency than TRPM8
